Experimental data published in PMC11583123, “Linker Chemistry and Connectivity Fine-Tune the Immune Response and Kinetic Solubility of Conjugated NOD2/TLR7 Agonists” (Bioconjugate Chemistry, 2024).
“Also recorded” adds a separate entry of the source.

Key:
[1] = system: human primary peripheral blood mononuclear cells (PBMCs); experiment: Cytokine release from peripheral blood mononuclear cells (LEGENDplex); type: cell-based; settings: 1 μM, 18 h, Figure S2
Experimental: Third, the immunostimulatory potential of synthesized conjugates was assessed in human primary peripheral blood mononuclear cells (PBMCs) (Figure 3, Supporting Table), which represent a diverse array of immune cell subpopulations, providing a more physiologically relevant system for studying concurrent NOD2/TLR7 or NOD2/TLR7/TLR8 activation. […]
software (version 9; GraphPad Software, CA, USA). The experiments were run in duplicates, and repeated as at least three independent biological replicates.
3.5 Cytokine Release from Peripheral Blood Mononuclear Cells […]
growth medium and treated with the compounds (1 μM), or the corresponding vehicle (0.1% DMSO).
Cell-free supernatants were collected after 18 h of incubation (37 °C, 5% CO2) and stored at −80 °C until tested. Cytokine concentrations were determined with the LEGENDplex™ HU Essential Immune Response Panel (Biolegend) on an Attune NxT flow cytometer (Thermo Fisher Scientific, Waltham, MA). […] The data were analyzed using the FlowJo (Tree Star, Inc., Ashland, OR) and Prism (GraphPad, San Diego, CA) software.
Statistical significance was determined with one-way ANOVA with subsequent Dunnett’s multiple […]
The data were analyzed using Prism software (version 9; GraphPad Software, CA, USA). Statistical significance was determined according to the specific procedures outlined in each experiment. […]

human TLR8 = target: T1, human TLR8 (Homo sapiens, UniProt Q9NR97); experiment: HEK-Blue TLR8 NF-κB SEAP reporter assay; type: cell-based; settings: HEK-Blue TLR8 cells; for EC50: 18 h, eight concentrations (1 nM to 10 μM), mean ± SEM; for TLR8 agonistic activity (in words): up to 10 μM
T1 construct: host or cells: HEK-Blue TLR8 (HEK293-derived)
T1 sequence (Q9NR97 27-1041): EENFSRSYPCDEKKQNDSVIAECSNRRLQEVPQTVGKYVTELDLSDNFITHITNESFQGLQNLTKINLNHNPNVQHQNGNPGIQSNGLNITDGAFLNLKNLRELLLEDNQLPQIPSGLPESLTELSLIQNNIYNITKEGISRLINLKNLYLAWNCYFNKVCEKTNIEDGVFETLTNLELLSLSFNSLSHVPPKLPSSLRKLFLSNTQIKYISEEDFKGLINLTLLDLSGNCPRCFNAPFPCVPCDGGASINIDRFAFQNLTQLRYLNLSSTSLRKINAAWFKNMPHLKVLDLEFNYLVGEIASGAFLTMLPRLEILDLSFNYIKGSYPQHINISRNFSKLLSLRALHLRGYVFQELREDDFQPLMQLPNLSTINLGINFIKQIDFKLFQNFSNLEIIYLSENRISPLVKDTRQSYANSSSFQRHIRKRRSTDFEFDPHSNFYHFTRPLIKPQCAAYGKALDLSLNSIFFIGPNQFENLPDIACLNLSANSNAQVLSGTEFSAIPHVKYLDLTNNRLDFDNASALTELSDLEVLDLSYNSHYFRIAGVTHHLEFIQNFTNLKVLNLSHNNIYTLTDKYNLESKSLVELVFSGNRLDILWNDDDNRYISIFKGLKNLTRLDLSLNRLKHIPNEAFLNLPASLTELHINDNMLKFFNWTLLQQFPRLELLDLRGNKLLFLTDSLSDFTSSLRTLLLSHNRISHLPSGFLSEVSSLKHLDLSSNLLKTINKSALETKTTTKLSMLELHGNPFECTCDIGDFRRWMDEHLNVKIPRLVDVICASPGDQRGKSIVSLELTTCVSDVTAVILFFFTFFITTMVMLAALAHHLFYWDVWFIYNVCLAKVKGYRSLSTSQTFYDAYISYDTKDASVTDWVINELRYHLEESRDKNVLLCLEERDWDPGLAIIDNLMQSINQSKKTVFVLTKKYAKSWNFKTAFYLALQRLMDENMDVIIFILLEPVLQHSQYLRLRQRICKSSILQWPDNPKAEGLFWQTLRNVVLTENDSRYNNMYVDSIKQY
From the text: The building blocks and synthesized conjugates were initially assessed for their receptor-specific activities toward NOD2, TLR7 and TLR8 using the commercially available HEK-Blue NOD2, TLR7 and TLR8 reporter cell lines. These cell lines were derived from HEK293 cells by cotransfection of human NOD2/TLR7/TLR8 and an NF-κB-inducible secreted embryonic alkaline phosphatase (SEAP). Activation of NOD2/TLR7/TLR8, and subsequently of NF-κB, leads to the expression and secretion of SEAP, the levels of which can be quantified colorimetrically. […]
3.1. Hek-Blue NOD2, TLR7 and TLR8 cells.
HEK-Blue NOD2, TLR7, and TLR8 cells (Invivogen, San Diego, CA, USA) were cultured according to the manufacturer instructions in Dulbecco’s modified Eagle’s medium (Sigma-Aldrich, St. Louis, MO, USA) supplemented with 10% heat-inactivated fetal bovine serum (Gibco), 2 mM L-glutamine (Sigma-Aldrich), 100 U/mL penicillin (Sigma-Aldrich), 100 µg/mL streptomycin (Sigma-Aldrich), and 100 µg/mL Normocin (Invivogen) for two passages. All subsequent passages of NOD2 and TLR8 cells were cultured in medium additionally supplemented with 100 µg/mL Zeocin and 30 µg/mL Blasticidin (Invivogen) and of TLR7 cells with 100 µg/mL Zeocin and 10 µg/mL Blasticidin. […]
The tested compounds were dissolved in DMSO and further diluted in culture medium to the desired final concentrations, such that the final DMSO concentration never exceeded 0.1%. […]
3.4 NOD2/TLR7/TLR8 NF-kB reporter assay
HEK-Blue NOD2 cells (25,000 cells/well), TLR7 and TLR8 cells (40,000 cells/well) were seeded in 96-well plates in 100 µL HEK-Blue detection medium (Invivogen, San Diego, CA, USA) and treated with […]
corresponding vehicle (0.1% DMSO). After 18 h of incubation (37 °C, 5% CO2), secreted embryonic

| Structure (SMILES) | Cytokine release versus combinations of 5 + 6 or 5 + 7 (in words) [1] | EC50 (human TLR8) [µM] | TLR8 agonistic activity (in words) (human TLR8) |
| --- | --- | --- | --- |
| CCOCc1nc2c(NC(=O)CCCCCNC(=O)CC[C@@H](NC(=O)[C@@H](NC(=O)CNC(=O)/C=C/c3ccc(O)c(OC)c3)C(C)C)C(=O)OCC)nc3ccccc3c2n1CC(C)(C)O [compound 32] | devoid of any potential synergistic effect; also recorded: not significantly increased | > 10 | neither 32 nor 33 were able to induce any TLR8 agonistic activity |
| CCOCc1nc2c(N)nc3ccccc3c2n1CC(C)(C)NC(=O)CCCCCNC(=O)CC[C@@H](NC(=O)[C@@H](NC(=O)CNC(=O)/C=C/c1ccc(O)c(OC)c1)C(C)C)C(=O)OCC [compound 33] | devoid of any potential synergistic effect; also recorded: not significantly increased | > 10 | neither 32 nor 33 were able to induce any TLR8 agonistic activity |
